Measured values from patent publication US20240115597A1, “METHOD FOR TREATING AND/OR PREVENTING HEARING LOSS BY USING TOLL-LIKE RECEPTOR 7 AND/OR 9 ANTAGONIST” (Kaohsiung Chang Gung Memorial Hospital, priority 2022, published 2024).
Entries after “also recorded” stand apart in the source; their conditions may differ.

Legend:
[1] = system: CBA/CaJ mice; assay: Noise-induced auditory brainstem response (ABR) threshold shift; format: in vivo; conditions: 3 weeks after 106-dB noise exposure, chloroquine 50 mg/kg intraperitoneal, ODN 2088 5 mg/kg subcutaneous, four treatments
Description: (§1) The animal models used in this example and the following examples are as follows. Male CBA/CaJ mice at 4-6 weeks of age were purchased from National Laboratory Animal Center in Taiwan. The mice accessed to water and a regular mouse diet, and were kept at 22±1° C. under a standard 12h:12h light-dark cycle to acclimate for one week before the experiments. The lights were on from 5:00 to 17:00).
(§2) The experimental procedure of noise exposure is as follows. Three awake CBA/CaJ mice in the same group were placed in a sound chamber, with one mouse per stainless steel cage. The sound chamber was fitted with a loudspeaker, driven by an amplifier connected to a CD player. Broadband noise (BBN) with a frequency of 2 to 20 kHz was compiled onto a CD and equalized with software. […]
(§3) The experimental procedure of auditory brainstem response (ABR) is as follows. […] Body temperature was monitored and maintained near 37° C. with a heating pad. […] ABRs were measured at 8, 16, and 32 kHz. […] Thresholds were determined for each frequency by reducing the intensity in 10 dB increments and then in 5 dB steps near the threshold until no organized responses were detected. […] ABR thresholds were detected at before noise exposure and one week/three week after noise exposure. […]

[2] = system: CBA/CaJ mice; assay: Noise-induced reduction of ABR wave I amplitude; format: in vivo; conditions: 16 kHz; 106-dB noise; chloroquine 50 mg/kg intraperitoneal, ODN 2088 5 mg/kg subcutaneous
Description: as §1
The experimental procedure of noise exposure is as follows. Three awake CBA/CaJ mice in the same group were placed in a sound chamber, with one mouse per stainless steel cage. The sound chamber was fitted with a loudspeaker, driven by an amplifier connected to a CD player. […]
as §3
To test if TLR7/9 antagonists could protect the auditory nerve against acoustic trauma, we measured the ABR wave I amplitudes at 16 kHz, which is one of the most sensitive frequencies of the auditory spectrum in the mice.

[3] = system: outer hair cell (OHC); assay: Outer hair cell (OHC) counts in cochlear surface preparations after 106-dB noise; format: in vivo, mice; conditions: basal segment, chloroquine 50 mg/kg intraperitoneal
Description: as §1, §2
To examine if TLR7/9 antagonist could protect the OHC from acoustic trauma, we counted the OHCs in surface preparations after 106-dB noise exposure. […]
The experimental procedure of immunocytochemistry for outer hair cell (OHC) counts is as follows. […] Cell populations in the phalloidin-stained stereociliary bundles and circumferential F-actin rings around the cuticular plate of the OHCs were evaluated using an epifluorescence microscope. […] Each successive 0.25 mm field was evaluated beginning from the apex to the base for counting the number of OHCs. […]

[4] = system: cochlear cytokines and chemokines; assay: Quantitative real-time RT-PCR of cochlear cytokine and chemokine gene expression after noise; format: in vivo, mice; conditions: one day after systemic (intraperitoneal) chloroquine treatment; noise exposure; normalized to Actb
Description: as §1, §2
To test if TLR7/9 antagonist could affect the expression of cochlear cytokines and chemokines after noise, we used quantitative real-time reverse transcription polymerase chain reaction (quantitative real-time RT-PCR) to analyze gene expression in the cochlea one day after systemic chloroquine treatment.
The experimental procedure of RNA isolation and quantitative real-time RT-PCR is as follows. […] Real-time quantitative PCR was performed in an ABI 7500 Fast Real-Time System (Applied Biosystems). […]

[5] = system: NF-κB; assay: NF-κB immunostaining of the cochlea after noise; format: in vivo, mice; conditions: lateral wall, middle-basal segment; 106-dB noise
Description: as §1
(§4) The experimental procedure of noise exposure is as follows. Three awake CBA/CaJ mice in the same group were placed in a sound chamber, with one mouse per stainless steel cage. The sound chamber was fitted with a loudspeaker, driven by an amplifier connected to a CD player. Broadband noise (BBN) with a frequency of 2 to 20 kHz was compiled onto a CD and equalized with software. Sound levels were calibrated with a sound level meter (type 2250; Brtiel & Kja✓r) fitted with a microphone (type 4189; Brtiel & Kja✓r, Na✓rum, Denmark) at the locations of each cage within the sound chamber, before and after exposure to the noise. The control (sham) group was put in the same cage without exposure to noise for 2 hours. An intensity of 106 dB broadband noise was used to produce permanent threshold shifts.
(§5) Chloroquine was dissolved in saline. ODN 2088 was dissolved in endotoxin-free water. The control group was endotoxin-free water. […]

[6] = system: Iba-1±cells; assay: Iba-1± cell (macrophage) infiltration into the cochlea after noise; format: in vivo, mice
Description: as §1, §4, §5

## CCN(CC)CCCC(C)Nc1ccnc2cc(Cl)ccc12 (stereo not drawn) [chloroquine]
[1]
  noise-induced ABR threshold shift: attenuate 106-dB noise-induced auditory threshold shifts
[1]; listed as Chloroquine
  noise-induced ABR threshold shift: decreased the noise-induced ABR thresholds shift
[2]
  noise-induced decrease in ABR wave I amplitude: attenuate 106-dB noise-induced wave I amplitude reduction at 16 kHz; also recorded: attenuated the noise-induced decrease in the amplitudes
[3]
  percentage of OHC loss: decreases noise-induced outer hair cell (OHC) loss; also recorded: attenuated the percentage of OHC loss over this area
[4]
  mRNA expression of Tlr9, MyD88, Il-1β, Tnf-α and Irf-7 in the cochlea: decreases noise-induced elevation of cochlear cytokines and chemokines expression; also recorded: attenuated these changes
  noise-induced elevation of Ccl2, Ccl4 and Ccl12 expression in the cochlea: decreases noise-induced elevation of cochlear cytokines and chemokines expression; also recorded: decreased the noise-induced elevation
[5]
  immunostaining of NF-κB in the cochlea: attenuates noise-induced nuclear factor kappa-B (NF-κB) immunostaining of the cochlea; also recorded: decreased the immunostaining of NF-κB
[6]; each segment of the cochlea
  number of Iba-1±signals, quantification of immunofluorescence: reduces the number of Iba-1macrophage infiltration in the cochlea; also recorded: decreases the number of Iba-1signals in each segment of the cochlea
[6]; lower spiral ligament of the cochlea
  Iba-1±cell infiltration, immunohistochemistry: attenuates noise-induced infiltration of Iba-1macrophages; also recorded: attenuates the increase in Iba-1cell infiltration
